Source: US20240400986A1, “MEMBRANE BOUND COMPOSITIONS AND METHODS RELATING TO SAME” (FLAGSHIP PIONEERING INNOVATIONS VII, LLC, priority 2021, published 2024)
Where two headings read alike, the source gives them in different places.

Assays:
[1] = test system: neuronal cell line derived from human neuroblastoma; assay: Small molecule compound screen of gigasome production in neuronal monocultures; details: for Fold Change of Gigasomes Produced vs. DMSO / Number of Gigasomes Produced: neuronal cells, 24 hours; for fold induction at 0.01 µM / fold induction at 0.1 µM / fold induction at 1 µM / fold induction at 10 µM: Homo sapiens, 24 h, read-out: Fold Change of Gigasomes Produced vs. DMSO
[2] = test system: neuronal cell line derived from human neuroblastoma
[3] = test system: cardiomyocytic cell line derived from human ventricular heart tissue; assay: Small molecule compound screen of gigasome production in cardiomyocytic monocultures; details: for Number of Gigasomes Produced: Table 22, 24 hours;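 for all read-outs here: gigasomes shed into the culture medium were imaged by confocal microscopy and counted as round particles lacking nuclear signal, extrapolated to the whole well, fold change is relative to DMSO vehicle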
[4] = test system: cardiomyocytic cell line derived from human ventricular heart tissue; assay: Cell viability in cardiomyocyte compound screen (CellTiter-Glo); assay type: cell-based
[5] = neuronal cells, dose 10 nM, 24 hours
[6] = neuronal cells, dose 100 nM, 24 hours
[7] = neuronal cells, dose 1000 nM, 24 hours
[8] = neuronal cells, dose 10000 nM, 24 hours
[9] = Homo sapiens, Cardiomyocyte, 24 h, read-out: Fold Change of Gigasomes Produced vs. DMSO

Row | Structure (SMILES) | Number of Gigasomes Produced ([1]; dose 10 nM) | Number of Gigasomes Produced ([1]; dose 100 nM) | Fold Change of Gigasomes Produced vs. DMSO ([1]; dose 1000 nM) | Number of Gigasomes Produced ([1]; dose 1000 nM) | Viability [2, 5] [%] | Viability [2, 6] [%] | Viability [2, 7] | Number of Gigasomes Produced ([1]; dose 10000 nM) | Viability [2, 8] [%] | fold induction at 0.01 µM [1] | fold induction at 0.1 µM [1] | fold induction at 1 µM [1] | fold induction at 10 µM [1] | also measured
1 | O=C(Nc1ccc(O)c(C(=O)O)c1)c1cccc(NC(=O)c2ccco2)c1 [OSS128167] | >40 | 25-30 | 0.75-1.0 | 25-30 | 100 | >75 | 100% | – | – | – | – | – | – | Fold Change of Gigasomes Produced vs. DMSO ([1]; dose 10 nM): 1.0-1.25; Fold Change of Gigasomes Produced vs. DMSO ([1]; dose 100 nM): 0.75-1.0
2 | O=C(Nc1ccc(O)c(C(=O)O)c1)c1cccc(NC(=O)c2ccco2)c1 [OSS_128167] | – | – | – | – | – | – | – | 20-25 | 100 | – | – | – | – | Fold Change of Gigasomes Produced vs. DMSO ([1]; dose 10000 nM): 0.5-0.75
3 | C/C=C1/[C@H](O[C@@H]2O[C@H](CO)[C@@H](O)[C@H](O)[C@H]2O)OC=C(C(=O)OC)[C@H]1CC(=O)OCCc1ccc(O)c(O)c1 [Oleuropein, reference compound] | >40 | 30-35 | – | 30-35 | – | – | – | 25-30 | – | 1 to 1.25 | 0.75 to 1 | 0.75 to 1 | 0.5 to 0.75 | Viability ([2]; human, 24 h, 10 nM): 100%; Viability ([2]; human, 24 h, 100 nM): 100%; Viability ([2]; human, 24 h, 1000 nM): >75%; Viability ([2]; human, 24 h, 10000 nM): 100%
4 | O=C(O)c1cccnc1C(=O)O [Quinolinic acid] | – | – | – | – | – | – | – | – | – | – | – | – | – | fold induction at 0.1 µM [3, 9]: 1 to 1.25; Number of Gigasomes Produced ([3]; dose 100 nM, cardiomyocytes): 150-175; Viability ([4]; Table 22, dose 100 nM, cardiomyocytes, 24 hours): 100%
5 | COC(=O)c1ccc([C@@H]2c3[nH]c4ccccc4c3C[C@@H](C(=O)OC)N2C(=O)CCl)cc1 [RSL3, reference compound] | – | – | 2.0-3.0 | 55-65 | – | – | >75% | – | – | – | – | – | – | –
6 | C[C@@H]1COCCN1c1cc(=O)n2c(n1)N(Cc1cncc(Cl)c1)[C@H](C(F)(F)F)CC2 [SAR405] | – | – | – | – | – | – | – | – | – | – | – | – | – | fold induction at 1 µM [3, 9]: 1 to 1.25; fold induction at 10 µM [3, 9]: 1 to 1.25; Number of Gigasomes Produced ([3]; dose 1000 nM, cardiomyocytes): 150-175; Number of Gigasomes Produced ([3]; dose 10000 nM, cardiomyocytes): 200-225; Viability ([4]; human, 24 h, 1000 nM): 100.0%; Viability ([4]; human, 24 h, 10000 nM): >75%
7 | CC[C@H](CO)Nc1nc(NCc2ccccc2)c2ncn(C(C)C)c2n1 [Seliciclib] | 25-30 | 25-30 | – | 25-30 | 100 | 100 | 100% | 15-20 | 100 | 0.75 to 1 | 0.75 to 1 | 0.75 to 1 | 0.5 to 0.75 | –
8 | CC(C)[C@H](O)C(=O)N[C@@H](C)C(=O)N[C@@H]1C(=O)N(C)CCc2ccccc21 [Semagacestat] | >40 | 35-40 | – | 20-25 | 100 | 100 | 100% | 20-25 | 100 | 0.75 to 1 | 0.75 to 1 | 0.5 to 0.75 | 0.5 to 0.75 | –
9 | CCN(CC)CCNC(=O)c1c(C)[nH]c(/C=C2\C(=O)Nc3ccc(F)cc32)c1C [Sunitinib] | – | – | – | – | – | – | – | – | – | – | – | – | – | fold induction at 10 µM [3, 9]: 1.5 to 1.75; Number of Gigasomes Produced ([3]; dose 10000 nM, cardiomyocytes): 200-225; Viability ([4]; human, 24 h, 10000 nM): 50-75%
10 | CC(=O)Nc1cccc(-n2c(=O)n(C3CC3)c(=O)c3c(Nc4ccc(I)cc4F)n(C)c(=O)c(C)c32)c1 [Trametinib, reference compound] | 35-45 | 35-45 | – | 65-75 | – | – | – | – | – | 1.25 to 1.5 | 1.25 to 1.5 | 2 to 3 | – | Viability ([2]; human, 24 h, 10 nM): >75%; Viability ([2]; human, 24 h, 100 nM): >75%; Viability ([2]; human, 24 h, 1000 nM): >75%
11 | CC(/C=C/C(=O)NO)=C\[C@@H](C)C(=O)c1ccc(N(C)C)cc1 [Trichostatin A] | – | – | 1.75-2.0 | 55-65 | – | – | 50-75% | – | – | – | – | – | – | –
12 | N#C/C(=C\c1cn(-c2ccccc2)c2ccccc12)C(=O)O [UK-5099, reference compound] | 20-25 | 15-20 | 0.5-0.75 | 15-20 | 100 | 100 | 100% | 10-15 | 100 | – | – | – | – | Fold Change of Gigasomes Produced vs. DMSO ([1]; dose 10 nM): 0.5-0.75; Fold Change of Gigasomes Produced vs. DMSO ([1]; dose 100 nM): 0.5-0.75; Fold Change of Gigasomes Produced vs. DMSO ([1]; dose 10000 nM): 0.25-0.5; downregulation of gigasome production ([3]; cardiomyocytes, doses 10-10,000 nM, 24 h): dose-dependent downregulation
13 | CN1C(=N)N[C@](C)(c2cc(NC(=O)c3ccc(F)cn3)ccc2F)CS1(=O)=O [Verubecestat] | 35-40 | 25-30 | – | 20-25 | 100 | 100 | 100% | 20-25 | 100 | 0.75 to 1 | 0.5 to 0.75 | 0.5 to 0.75 | 0.5 to 0.75 | –
